Patent US10596168B2, “Antagonists of the thyroid-stimulating hormone receptor (TSHR)” (Forschungsverbund Berlin e.V., priority 2016, dated 2020)
Where “and” joins values, the source holds several entries; their conditions need not be identical. Identical values can stand only once.

Tests used:
Type in all cases: cell-based
[1] = target: T1, TSHR (Homo sapiens, UniProt P16473); assay: cAMP accumulation radioimmunoassay (RIA), inhibition of TSH-induced cAMP production in HEK-293 cells stably expressing TSHR; design: antagonistic activity (% inhibition): concentration or dose not given beside the values; conditions: for Antagonistic effect (cAMP inhibition) on TSHR: 50 μM together with the respective agonist, RIA, HEK-293; for antagonistic activity (% inhibition): inhibiting cAMP stimulation by TSH, radioimmunoassay; for IC50: secondary screen (RIA), dose-dependent inhibition of cAMP production caused by TSH (EC80 value), HEK-293-TSHR; for Mode of antagonism vs. TSH (Schild analysis): bTSH dose response with increasing antagonist concentrations, wt TSHR
T1 construct: expressed in transfected cells
T1 sequence (P16473 21-764): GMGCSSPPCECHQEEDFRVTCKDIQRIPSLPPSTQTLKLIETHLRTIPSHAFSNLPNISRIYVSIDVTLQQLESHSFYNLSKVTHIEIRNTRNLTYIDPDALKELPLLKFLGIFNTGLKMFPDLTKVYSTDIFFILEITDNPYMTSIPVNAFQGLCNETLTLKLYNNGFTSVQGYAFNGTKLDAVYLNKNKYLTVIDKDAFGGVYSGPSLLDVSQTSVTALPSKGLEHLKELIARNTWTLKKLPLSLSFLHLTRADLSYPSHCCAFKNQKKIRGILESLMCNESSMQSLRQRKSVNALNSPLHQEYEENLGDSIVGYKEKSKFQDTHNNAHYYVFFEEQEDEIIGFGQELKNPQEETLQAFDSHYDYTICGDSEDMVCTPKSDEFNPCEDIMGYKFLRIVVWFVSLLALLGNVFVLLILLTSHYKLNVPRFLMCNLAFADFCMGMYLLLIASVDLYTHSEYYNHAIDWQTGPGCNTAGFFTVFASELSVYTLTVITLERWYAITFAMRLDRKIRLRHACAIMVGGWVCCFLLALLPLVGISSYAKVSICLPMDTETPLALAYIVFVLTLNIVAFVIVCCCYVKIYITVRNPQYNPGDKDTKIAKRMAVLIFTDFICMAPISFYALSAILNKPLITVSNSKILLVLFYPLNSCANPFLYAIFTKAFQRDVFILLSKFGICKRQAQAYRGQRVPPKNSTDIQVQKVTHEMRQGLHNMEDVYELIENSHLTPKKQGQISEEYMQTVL
Experimental: (§1) HEK-293 cells stably expressing TSHR, FSHR, LHGCR or CRF1R were cultured for 48 h and stimulated for 1 h at 37° C. with stimulation buffer (DMEM supplemented with 10 mM HEPES, 0.5% BSA, 0.25 mM 3-isobutyl-1-methylxanthine) containing the ligands as indicated. After stimulation medium was aspirated and reactions were stopped by lysis of the cells with 0.1% trifluoroacetic acid, 0.005% Triton X-100 for 30 min at 4° C. Supernatants were collected and heated at 95° C. for 10 min, dried in a rotation vacuum concentrator (Alpha-RCV, Christ) and finally stored at −20° C. until use. After reconstitution and acetylation of the samples (Jäschke et al. 2006), the cAMP content was determined using cAMP-^125I-tyrosyl methyl ester (10,000 cpm, IBL) and polyclonal rabbit anti cAMP antibodies. The radioactivity of the precipitate was determined in a γ-counter.
For the Secondary Screening cAMP accumulation was measured by radioimmunoassay (RIA) in HEK-293-TSHR cells as described before.
For the secondary screening we used a very sensitive in vitro technique, the radioimmunoassay. This assay was established and performed in HEK-293 cell line stably expressing TSHR.
Therefore RIA was used to measure the cAMP accumulation upon stimulation with TSH (EC80 value) and confirmed the desired effect for S4 and S9 with a clear decrease of cAMP production.

[2] = target: T2, FSHR (Homo sapiens, UniProt P23945); assay: Selectivity test: cAMP RIA in HEK-293 cells stably expressing FSHR; conditions: 50 μM together with the respective agonist
T2 construct: expressed in transfected cells
T2 sequence (P23945 18-695): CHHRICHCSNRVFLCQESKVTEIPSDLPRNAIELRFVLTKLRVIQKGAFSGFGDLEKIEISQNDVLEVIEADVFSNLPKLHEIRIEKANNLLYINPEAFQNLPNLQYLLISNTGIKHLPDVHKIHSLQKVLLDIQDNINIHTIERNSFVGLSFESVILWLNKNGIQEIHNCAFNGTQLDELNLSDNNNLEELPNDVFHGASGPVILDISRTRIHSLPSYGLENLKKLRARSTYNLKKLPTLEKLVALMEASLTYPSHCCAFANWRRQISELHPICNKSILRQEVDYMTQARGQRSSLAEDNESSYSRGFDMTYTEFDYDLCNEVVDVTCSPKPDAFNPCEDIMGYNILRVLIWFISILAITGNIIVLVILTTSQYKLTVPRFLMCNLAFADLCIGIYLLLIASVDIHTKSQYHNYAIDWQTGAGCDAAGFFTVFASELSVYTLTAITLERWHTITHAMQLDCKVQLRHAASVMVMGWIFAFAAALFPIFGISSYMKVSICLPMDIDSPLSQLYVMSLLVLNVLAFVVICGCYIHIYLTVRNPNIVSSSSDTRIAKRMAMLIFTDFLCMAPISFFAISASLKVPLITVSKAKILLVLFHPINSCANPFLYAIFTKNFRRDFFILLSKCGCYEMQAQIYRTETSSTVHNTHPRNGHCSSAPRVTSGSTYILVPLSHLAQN
Experimental: as §1
(§2) The antagonistic activity of compounds S4, S9, S37 and as reference compound, the micromolar inverse agonist 2-7 (Neumann et al. 2010) were tested on homologous members of the glycoprotein hormone receptor family, FSHR and LHCGR. […] All receptors were stably expressed in HEK-293 cells and the impact of each substance was measured upon administration of 50 μM together with the respective agonist. cAMP accumulation was quantified by RIA. The antagonistic potential of each compound was calculated. […]

[3] = target: T1, TSHR; assay: Primary screening, Enzyme Fragment Complementation (EFC) cAMP assay in CHO-K1-TSHR cells; conditions: 50 μM; after hit validation and exclusion of false positives
Experimental: Primary screening was performed using an Enzyme Fragment Complementation (EFC) technology. CHO-K1-TSHR cells (15000/well in a 384 well plate) were treated with 50 μM of each of the 16544 compounds of the ChemBioNet compound library of the Leibniz-Institut fuer Molekulare Pharmakologie (FMP), Berlin, Germany. EFC technology uses two fragments of one enzyme: an enzyme acceptor (EA) and an enzyme donor (ED). ED is labeled to (synthetic) cAMP. […] In this assay, free cAMP from cell lysates and ED-labeled cAMP compete for antibody binding sites. Unbound ED-cAMP is free to complement EA to form active enzyme, which subsequently produces a luminescent signal. Thus the luminescence signal increases with rising level of intracellular cAMP. All assay components were used after the manufacturer's protocol.
Hits were validated by dose-response curves using the EFC assay.
False-positive hits could be excluded by stimulating CHO-K1 cells without TSHR with Forskolin (23.4 μM) followed by addition of the compound of interest. Forskolin activates the Adenylyl-cyclase directly. Inhibition of this effect excludes the interaction between TSHR and compound.
For the implementation of the primary screen the Enzymes Fragment Complementation Technology (EFC) was selected.

[4] = target: T3, wt TSHR (Homo sapiens, UniProt P16473); assay: cAMP stimulation by agonist compound C2 at wildtype TSHR with increasing antagonist concentrations; conditions: C2 dose response with increasing antagonist concentrations
T3 construct: expressed in transfected cells
T3 sequence (P16473 21-764): as the sequence (P16473 21-764) above
Experimental: as §1
Moreover, a Schild plot analysis provided first interesting hints that S37 might compete with the binding site of TSH, since increasing concentrations of added S37 led to a right shift of the TSH dose response curve (FIG. 5A) and to a linear Schild plot (FIG. 5B). S37 seems not to compete with the transmembrane binding site of the previous reported agonist compound 2 (Neumann et al. 2009), since increasing concentrations of added S37 led to diminished maximal values of the dose response curve for compound 2 by unchanged EC50 value (FIG. 5C).

[5] = target: T4, Δ1-408-TSHR (Homo sapiens, UniProt P16473); assay: cAMP radioimmunoassay at ectodomain-truncated TSHR construct stimulated by compound 2; conditions: Δ1-408-TSHR lacking the ectodomain
T4 construct: This short construct (Δ1-408-TSHR.GFP) only consists of the transmembrane region; expressed in transfected cells
T4 sequence (P16473 409-764, stated change not applied): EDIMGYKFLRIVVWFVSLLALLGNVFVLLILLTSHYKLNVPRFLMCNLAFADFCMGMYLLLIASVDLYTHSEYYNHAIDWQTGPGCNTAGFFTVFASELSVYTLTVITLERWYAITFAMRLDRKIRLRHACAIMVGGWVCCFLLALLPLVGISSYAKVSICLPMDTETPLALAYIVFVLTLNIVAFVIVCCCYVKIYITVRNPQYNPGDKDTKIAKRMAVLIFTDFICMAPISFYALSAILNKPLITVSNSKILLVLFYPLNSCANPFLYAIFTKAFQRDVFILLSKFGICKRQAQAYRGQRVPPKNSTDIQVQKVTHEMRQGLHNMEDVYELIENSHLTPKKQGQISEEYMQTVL
Excerpt: Ectodomain-truncated TSHR construct (Δ1-408-TSHR.GFP) was generated using quick change site-directed mutagenesis and restriction digestion to excise the desired fragment of the TSHR sequence. The DNA sequence encoding the truncated TSHR mutant was inserted into the GFP-N1 vector. The construct was fused C-terminally with GFP and N-terminally with a FLAG tag. The FLAG tag was inserted by overlap-extension PCR. A HEK-293 cell line stably expressing this construct was generated. Shortly, cells were transfected with Polyethylenimine and plasmid DNA in a 2:1 ratio in serum free medium (DMEM). Cells were selected with medium containing 400 μg/ml G418 for several weeks and then a polyclonal population was selected for GFP fluorescence in a cell sorting device (BD FACSAria II flow cytometer). Cell surface expression was confirmed by confocal laser-scanning microscopy (GFP fluorescence) and flow cytometry using anti-FLAG M2 (Sigma).
HEK-293 cells stably expressing TSHR, FSHR, LHGCR or CRF1R were cultured for 48 h and stimulated for 1 h at 37° C. with stimulation buffer (DMEM supplemented with 10 mM HEPES, 0.5% BSA, 0.25 mM 3-isobutyl-1-methylxanthine) containing the ligands as indicated. […] After reconstitution and acetylation of the samples (Jäschke et al. 2006), the cAMP content was determined using cAMP-^125I-tyrosyl methyl ester (10,000 cpm, IBL) and polyclonal rabbit anti cAMP antibodies. […]

[6] = system: Hek293 cell line stably expressing TSHR; assay: Toxicity test, alamar blue cell vitality; conditions: 10 μM-100 μM
Experimental: The vitality of the cells was measured by the alamar blue test using Hek293 cell line stably expressing TSHR. Untreated cells and DMSO-treated cells (0.2% DMSO) were used as control.
Therefore, we conclude that substance S37 is not toxic for the concentration range evaluated by this assay.

[7] = target: T5, LHCGR (Homo sapiens, UniProt P22888); assay: Selectivity test: cAMP RIA in HEK-293 cells stably expressing LHCGR; conditions: 50 μM together with the respective agonist
T5 construct: expressed in transfected cells
T5 sequence (P22888 27-699, species assumed): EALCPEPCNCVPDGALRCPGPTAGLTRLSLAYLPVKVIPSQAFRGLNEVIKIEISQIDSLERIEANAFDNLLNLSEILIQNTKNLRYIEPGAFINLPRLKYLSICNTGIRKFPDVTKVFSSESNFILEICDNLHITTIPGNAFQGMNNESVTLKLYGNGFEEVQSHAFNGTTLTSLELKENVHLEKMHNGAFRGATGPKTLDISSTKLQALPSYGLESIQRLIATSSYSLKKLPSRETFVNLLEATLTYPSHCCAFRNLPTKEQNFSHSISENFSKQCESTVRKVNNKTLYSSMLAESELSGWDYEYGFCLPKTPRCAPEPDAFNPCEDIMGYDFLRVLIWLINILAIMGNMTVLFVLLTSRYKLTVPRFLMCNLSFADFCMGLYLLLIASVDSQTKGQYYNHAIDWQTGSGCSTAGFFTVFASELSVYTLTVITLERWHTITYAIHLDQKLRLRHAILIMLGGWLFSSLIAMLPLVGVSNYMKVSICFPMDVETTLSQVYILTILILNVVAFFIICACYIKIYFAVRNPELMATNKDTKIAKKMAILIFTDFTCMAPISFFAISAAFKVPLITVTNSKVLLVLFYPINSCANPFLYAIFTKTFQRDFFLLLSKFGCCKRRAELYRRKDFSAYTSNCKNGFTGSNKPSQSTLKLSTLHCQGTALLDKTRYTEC
Experimental: as §1, §2

Row | antagonistic activity (% inhibition) [1] | IC50 [1] | Primary screen hit: cAMP production induced by thyrotropin [3] | Mode of antagonism vs. TSH (Schild analysis) [1] | TSHR selectivity versus homologous receptors LHCGR and FSHR ([1]; from cAMP inhibition at TSHR, FSHR, LHCGR at 50 μM) | Mode of antagonism vs. C2 [4] | Mode of antagonism vs. C2 at truncated construct [5] | SMILES | Antagonistic effect (cAMP inhibition) on TSHR [1] | Antagonistic effect (cAMP inhibition) on FSHR [2] | Toxicity (cell vitality, alamar blue) [6] | Antagonistic effect (cAMP inhibition) on LHCGR [7]
1 | 63% | 48.9 µM and 49 µM | potentially abolishing cAMP production |  |  |  |  | Cc1ccc(N2C(=O)C3C4CC(C3C2=O)C2C(c3ccccc3)c3sc(=O)[nH]c3SC42)cc1 (stereo not drawn) [Compound S4] | inhibits TSHR and FSHR activation | inhibits TSHR and FSHR activation |  | 
2 | 70% | 28 µM |  | competitive antagonism | highly TSHR-selective | non-competitive antagonism | non-competitive antagonism | O=C1[C@@H]2[C@H]3C[C@H]([C@@H]4Sc5[nH]c(=O)sc5[C@@H](c5ccccc5)[C@H]34)[C@@H]2C(=O)N1c1ccccc1 (racemic) [Compound S37, (4aS,5S,5aR,8aR,9R,9aS,10R)-7,10-diphenyl-3,4a,5,5a,8a,9,9a,10-octahydro-5,9-methanothiazolo[5′,4′:5,6]thiopyrano[2,3-f]isoindole-2,6,8(7H)-trione] | inhibits TSHR comparable to the reference compound 2-7(NIH) |  | not toxic | 
3 | 75% | 18.7 µM and 18.6 µM | potentially abolishing cAMP production | non-competitive antagonism |  | non-competitive antagonism |  | O=C1C2C3C=CC(C3)C2C(=O)N1c1ccc(N2CCN(c3cccc(C(F)(F)F)c3)CC2)c([N+](=O)[O-])c1 (stereo not drawn) [Compound S9] | unspecifically inhibits all three receptors | unspecifically inhibits all three receptors |  | unspecifically inhibits all three receptors
